Laboratory results published in paper PMC6120190, “Identification of two distinct peptide-binding pockets in the SH3 domain of human mixed-lineage kinase 3” (The Journal of Biological Chemistry, 2018).
No end group written: not given here. *: point of attachment. Biotin = O=C1N[C@H]2[C@H](CS[C@H]2CCCCC(=O)*)N1

Experiments:
GST-MLK1 SH3 [1] = assay: specificity ELISA, MLK1; type: binding, human; settings: biotinylated peptide ≈2 μM on NeutrAvidin; GST-SH3 0.15 μM, 1–1.5 h; anti-GST-HRP; triplicate (Fig. 8)
Procedure: (§1) Figure 8. Binding of MIP and NS5A peptides to SH3 domain of other members of MLK subfamily (MLK1–4). To determine whether MIP and NS5A can interact with SH3 domains of MLK1–4 proteins, the purified GST-MLK1–4 SH3 domains were incubated with biotinylated peptides, NS5A peptide ([…]-GGG-K-biotin), MIP ([…]-K-biotin), and MIP-R12A ([…]-K-biotin), immobilized on a NeutrAvidin-coated 96-well ELISA plate. Binding of SH3 domain was detected with anti-GST antibody conjugated to HRP. […] See also Fig. S6.
(§2) Two plasmids, gifts from Dr. Gerardo Morfini, University of Illinois at Chicago, encoding a GST protein fused to either the WT or mutant Y52A of the SH3 domain of MLK3 (UniProt entry Q16584; aa 43–104), respectively, between BamHI and EcoRI sites, were transformed into the Escherichia coli strain Rosetta(DE3)pLysS. DNA fragments encoding the SH3 domain of MLK1 (UniProt entry P80192; aa 52–116), MLK2 (UniProt entry Q02779; aa 16–81), and MLK4 (UniProt entry Q5TCX8; aa 38–102) were commercially prepared as gBlocks® Gene Fragments (Integrated DNA Technologies, Inc.). All coding regions were codon-optimized for E. coli expression. DNA fragments were cleaved with BamHI-HF® and EcoRI-HF® (New England Biolabs) and subsequently ligated into pGex-2T vector. […]

GST-MLK2 SH3 [2] = assay: specificity ELISA, MLK2; type: binding, human; settings: biotinylated peptide ≈2 μM on NeutrAvidin; GST-SH3 0.15 μM, 1–1.5 h; anti-GST-HRP; triplicate (Fig. 8)
Procedure: as §1, §2

GST-MLK3 SH3 [3] = assay: specificity ELISA, MLK3; type: binding, human; settings: biotinylated peptide ≈2 μM on NeutrAvidin; GST-SH3 0.15 μM, 1–1.5 h; anti-GST-HRP; triplicate (Fig. 8)
Procedure: as §1, §2

GST-MLK4 SH3 [4] = assay: specificity ELISA, MLK4; type: binding, human; settings: biotinylated peptide ≈2 μM on NeutrAvidin; GST-SH3 0.15 μM, 1–1.5 h; anti-GST-HRP; triplicate (Fig. 8)
Procedure: as §1, §2

MLK3 SH3 domain Y52A = assay: binding to Y52A mutant of MLK3 SH3; set-up: species or system human; settings: data not shown
Text: Two plasmids, gifts from Dr. Gerardo Morfini, University of Illinois at Chicago, encoding a GST protein fused to either the WT or mutant Y52A of the SH3 domain of MLK3 (UniProt entry Q16584; aa 43–104), respectively, between BamHI and EcoRI sites, were transformed into the Escherichia coli strain Rosetta(DE3)pLysS. DNA fragments encoding the SH3 domain of MLK1 (UniProt entry P80192; aa 52–116), MLK2 (UniProt entry Q02779; aa 16–81), and MLK4 (UniProt entry Q5TCX8; aa 38–102) were commercially prepared as gBlocks® Gene Fragments (Integrated DNA Technologies, Inc.). All coding regions were codon-optimized for E. coli expression. DNA fragments were cleaved with BamHI-HF® and EcoRI-HF® (New England Biolabs) and subsequently ligated into pGex-2T vector. The resulting DNA constructs, pGex-MLK1 SH3, pGex-MLK2 SH3, and pGex-MLK4 SH3 (verified by sequencing) were transformed into E. coli strain BL21(DE3).

GST tag = assay: binding of MIP to GST tag; settings: ELISA
Procedure: After three washes with PBS containing 0.1% Tween 20 (PBST), retention of the SH3 domain fusion protein in wells was detected with an anti-GST antibody conjugated to horseradish peroxidase (HRP) (GE Healthcare; 45 min; 1:5000 in PBST). Following three washes with PBST, the chromogenic substrate solution 2,2-azinobis(3-ethylbenzthiazoline-6-sulfonic acid) (ABTS; Pierce); 10 ml of 50 mM sodium citrate, pH 4.0; and 100 μl of 3% H2O2 were added to the plate (100 μl/well). The absorbance was measured at 405 nm with a POLARstar OPTIMA microtiter plate reader (BMG Labtech).

SH3 domain of MLK3 = settings: cited from earlier work
Text: Mixed-lineage protein kinase 3 (MLK3) is widely expressed in a variety of normal and cancerous tissues, such as brain, lung, liver, heart, breast, kidney, pancreas, and skeletal muscle ([34][–][36]). MLK3, also known as MAP3K11, is a serine/threonine protein kinase involved in regulating the JNK, p38, and ERK pathways ([37][–][42]). It is composed of several modules: an SH3 domain, a kinase domain, tandem leucine zippers, a Cdc42/Rac interactive binding (CRIB) motif, several linker regions, and a proline-rich C-terminal tail ([39], [43]). According to the BioGRID interaction database ([44]), M ...

GST-MLK3 SH3 [5] = assay: phage ELISA of phage-displayed MIP and variants on GST-MLK3 SH3; type: binding, human; settings: original clone/MIP, anti-M13 mAb-HRP detection, experiments in duplicate, averaged
Procedure: (§3) Figure 1. […] The presence of virions in the supernatant was determined by coating the wells of the microtiter plate with an anti-M13 mAb (anti-M13 Ab). Virions, which were retained in the microtiter plate wells, were detected with anti-M13 mAb conjugated to HRP. […] See also Fig. S1.
Figure 2. […] The MIP sequence, NH2-[…]-COOH, was fused to the N terminus of the pIII capsid protein of bacteriophage M13 ([51]) to facilitate type 3 pentavalent display. Systematic alanine replacements in the peptide were generated by Kunkel mutagenesis ([11]); Ala-1 and Ala-14 were replaced with Val. […] The signal for binding of MIP (WT) to GST-MLK3 SH3 is set as 100%, and other values are normalized to it. […] See also Fig. S2.
Screens for peptide ligands were performed following a protocol published previously ([11]). […] After three rounds of affinity selection, individual phage clones were isolated, and their binding was evaluated via phage ELISA ([11]). […]
All constructs were generated via Kunkel mutagenesis ([11], [57], [58]) and facilitated type 3 (pentavalent) display. […] All constructs were verified by DNA sequencing, and phage clones were evaluated for their binding to the target (GST-MLK3 SH3) via phage ELISA ([11]). […]

GST fusion partner = assay: phage ELISA of phage-displayed MIP on GST fusion partner; type: binding; settings: duplicate (Fig. 1)
Procedure: as §3
Screens for peptide ligands were performed following a protocol published previously ([11]). The purified target protein, GST-MLK3 SH3-WT, was prebound to GSH magnetic beads (Pierce, catalogue number 88821), and nonspecific binding sites were blocked with phosphate-buffered saline (PBS; 137 mM NaCl, 3 mM KCl, 8 mM Na2HPO4, 1.5 mM KH2PO4) containing 3% (w/v) bovine serum albumin (BSA). […] After three rounds of affinity selection, individual phage clones were isolated, and their binding was evaluated via phage ELISA ([11]). Positive clones were then sequenced.

GST-MLK3 SH3(43–104) [6] = target: T1, GST-MLK3 SH3(43–104) (human, UniProt Q16584 43-104); assay: ELISA; settings: both partners purified
T1 construct: also called GST-MLK3 SH3-WT; SH3 WT
T1 sequence (looked up): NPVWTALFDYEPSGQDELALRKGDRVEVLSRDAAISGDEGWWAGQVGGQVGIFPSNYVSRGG

GST-MLK3 SH3(43–104) [7] = target: T1, GST-MLK3 SH3(43–104); assay: ELISA; competition ELISA: GST-MLK3 SH3 (5 μg/ml) preincubated 1–1.5 h with ≈0.01–100 μM unlabeled competitor peptide, then 45 min on biotinylated MIP (≈2 μM) captured via NeutrAvidin; anti-GST-HRP detection; GST tag tested as a control; settings: both partners purified
SEC = target: the molecule itself; assay: SEC
GST-MLK1 SH3 [8] = target: T2, GST-MLK1 SH3 (UniProt P80192 52-116); assay: ELISA; settings: both partners purified
T2 construct: also called SH3 domain of MLK1
T2 sequence (looked up): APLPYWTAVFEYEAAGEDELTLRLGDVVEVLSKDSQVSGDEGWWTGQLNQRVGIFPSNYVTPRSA

GST-MLK2 SH3 [9] = target: T3, GST-MLK2 SH3 (UniProt Q02779 16-81); assay: ELISA; settings: both partners purified
T3 construct: also called SH3 domain of MLK2
T3 sequence (looked up): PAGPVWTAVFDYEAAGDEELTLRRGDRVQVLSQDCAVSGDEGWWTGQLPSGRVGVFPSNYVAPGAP

GST-MLK4 SH3 [10] = target: T4, GST-MLK4 SH3 (UniProt Q5TCX8 38-102); assay: ELISA; settings: both partners purified
T4 construct: also called SH3 domain of MLK4
T4 sequence (looked up): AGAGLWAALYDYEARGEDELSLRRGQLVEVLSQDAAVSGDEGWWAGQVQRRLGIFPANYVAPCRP

## CC[C@H](C)[C@H](NC(=O)[C@H](C)N)C(=O)N[C@@H](CCCNC(=N)N)C(=O)N[C@H](C(=O)N[C@@H](CC(N)=O)C(=O)N1CCC[C@H]1C(=O)N[C@@H](CC(N)=O)C(=O)NCC(=O)N[C@H](C(=O)N[C@@H](Cc1c[nH]c2ccccc12)C(=O)N[C@@H](CO)C(=O)N[C@@H](CCCNC(=N)N)C(=O)N[C@@H](CCC(N)=O)C(=O)N[C@@H](C)C(=O)N[C@@H](CCC(=O)O)C(=O)N[C@H](C(=O)N[C@H](C(=O)N[C@@H](CCC(=O)O)C(=O)N[C@@H](CO)C(=O)O)C(C)C)[C@@H](C)O)[C@@H](C)O)[C@@H](C)CC [MIP]
GST-MLK1 SH3 [1]
  binding to MLK1 SH3: bound
GST-MLK2 SH3 [2]
  binding to MLK2 SH3: did not bind
GST-MLK3 SH3 [3]
  binding to MLK3 SH3: bound
GST-MLK4 SH3 [4]
  binding to MLK4 SH3: bound
MLK3 SH3 domain Y52A
  effect of SH3 mutation Y52A on peptide binding: disrupts binding
GST tag
  interaction with GST tag: no interactions

## HCV NS5A: hepatitis C virus nonstructural 5A protein
SH3 domain of MLK3
  interaction with SH3 domain of MLK3: interact with the SH3 domain of MLK3 via a PXXPXR motif

## NH2-AIRINPNGTWSRQAETVES-COOH [phage-displayed MIP, MIP fused to the N terminus of the pIII capsid protein of bacteriophage M13]
GST-MLK3 SH3 [5]
  binding to GST-MLK3 SH3 in phage ELISA: bind to the WT form of the MLK3 SH3 domain
GST fusion partner
  binding to GST fusion partner in phage ELISA: not the GST fusion partner

B1: unlabeled MIP (synthetic) (peptide)
peptide: AIRINPNGTWSRQAETVES
notes: also called MIP(1–19); soluble MIP peptide; source: synthetic peptide
GST-MLK3 SH3(43–104) [6]
  IC50: 6.6 ± 1.6 µM
GST-MLK3 SH3(43–104) [7]
  IC50: 15.8 ± 0.4 µM

B2: MLK3 SH3(41–105)-MIP(1–13) fusion protein (other, human)
chain: YANPVWTALFDYEPSGQDELALRKGDRVEVLSRDAAISGDEGWWAGQVGGQVGIFPSNYVSRGGGAIRINPNGTWSRQ
notes: also called the WT construct
SEC
  binding result: binds

B3: biotinylated NS5A peptide ([…]-GGG-K-biotin) (peptide)
peptide: KKAPTPPPRRRRGGGK(Biotin)
notes: also called immobilized NS5A; source: synthetic peptide
GST-MLK3 SH3(43–104) [6]
  binding result: binds
GST-MLK1 SH3 [8]
  binding result: binds
GST-MLK2 SH3 [9]
  binding result: binds
GST-MLK4 SH3 [10]
  binding result: binds
